In ChEMBL document CHEMBL1158693, “Antiinsectan decaturin and oxalicine analogues from Penicillium thiersii” (2005):

Columns and labels:
Assay type in all cases: functional
Set-up in all cases: scale not given: the % may be the effect or the level left
[1] = tested on: Spodoptera frugiperda; assay: Antiinsecticidal activity against Spodoptera frugiperda assessed as reduction in growth rate at 100 ppm relative to control
[2] = tested on: Spodoptera frugiperda; assay: Antiinsecticidal activity against Spodoptera frugiperda assessed as reduction in growth rate at 80 ppm relative to control
[3] = tested on: Spodoptera frugiperda; assay: Antiinsecticidal activity against Spodoptera frugiperda assessed as reduction in growth rate at 360 ppm relative to control

| SMILES | Activity [1] | other results |
| --- | --- | --- |
| CC1=CC[C@@H]2[C@]34CC[C@](O)(OC3)C(C)(C)[C@@H]4CC[C@@]2(C)[C@@]12Oc1cc(-c3cccnc3)oc(=O)c1[C@@H]2O [DECATURIN B] | 89% |  |
| CC1=CC[C@@H]2[C@]34CC[C@](O)(OC3)C(C)(C)[C@@H]4CC[C@@]2(C)[C@]12Cc1c(cc(-c3cccnc3)oc1=O)O2 [DECATURIN C] |  | Activity [2]: 28% |
| CC1=CC[C@@H]2[C@@]3(C)CCC(=O)C(C)(C)[C@@H]3CC[C@@]2(C)[C@]12Cc1c(cc(-c3cccnc3)oc1=O)O2 [DECATURIN D] | 77% |  |
| C=C(C)[C@@H]1CC[C@]2(C)[C@H](CC=C(C)[C@]23Oc2cc(-c4cccnc4)oc(=O)c2[C@@H]3O)[C@@]12CCC(=O)OC2 [OXALICINE A] |  | Activity [3]: 98% |
| C=C(C)[C@]1(O)CC[C@]2(C)[C@H](CC=C(C)[C@]23Oc2cc(-c4cccnc4)oc(=O)c2[C@@H]3O)[C@@]12CCC(=O)OC2 [OXALICINE B] | 62% |  |
